The test system of test [1] is A-375. The experiment in a line: proliferation inhibition in MITF-low A375 cells – cell-based, cherry-pick samples, set 2, counter-screen for MITF modulator project, dose response (AID 540335). The format is functional. Particulars: Homo sapiens. (A counterscreen serves to expose hits that act by an unwanted route or on another target.)
For test [2], the target named is Heat shock protein HSP 90-alpha (Homo sapiens, UniProt P07900). The experiment in a line: Luminescence-based dose response biochemical high throughput screening assay for inhibitors of the Heat Shock Protein 90 (HSP90). [Related pubchem assays: 1831 (Summary AID.), 1846 (Confirmation screen.), 1789 (Primary screen.)].
Test [3] deals with A-375. Briefly: MITF: Counter assay: A375 proliferation Measured in Cell-Based System Using Plate Reader - 2084-03_Inhibitor_Dose_DryPowder_Activity. [Related pubchem assays (depositor defined):AID488944]. It counts as functional. Particulars: Homo sapiens.
In a further test the target is Transthyretin (Homo sapiens, UniProt P02766). Briefly: Luminescence-based cell-based high throughput dose response assay to identify activators of Transthyretin (TTR) transcription. It counts as functional.
For test [4], the target named is 1-phosphatidylinositol 4,5-bisphosphate phosphodiesterase beta-3 (Homo sapiens, UniProt Q01970). The experiment in a line: Fluorescence-based biochemical high throughput dose response assay to identify inhibitors of phospholipase C isozymes (PLC-B3).
1-phosphatidylinositol 4,5-bisphosphate phosphodiesterase beta-3, sequence (Q01970 whole entry): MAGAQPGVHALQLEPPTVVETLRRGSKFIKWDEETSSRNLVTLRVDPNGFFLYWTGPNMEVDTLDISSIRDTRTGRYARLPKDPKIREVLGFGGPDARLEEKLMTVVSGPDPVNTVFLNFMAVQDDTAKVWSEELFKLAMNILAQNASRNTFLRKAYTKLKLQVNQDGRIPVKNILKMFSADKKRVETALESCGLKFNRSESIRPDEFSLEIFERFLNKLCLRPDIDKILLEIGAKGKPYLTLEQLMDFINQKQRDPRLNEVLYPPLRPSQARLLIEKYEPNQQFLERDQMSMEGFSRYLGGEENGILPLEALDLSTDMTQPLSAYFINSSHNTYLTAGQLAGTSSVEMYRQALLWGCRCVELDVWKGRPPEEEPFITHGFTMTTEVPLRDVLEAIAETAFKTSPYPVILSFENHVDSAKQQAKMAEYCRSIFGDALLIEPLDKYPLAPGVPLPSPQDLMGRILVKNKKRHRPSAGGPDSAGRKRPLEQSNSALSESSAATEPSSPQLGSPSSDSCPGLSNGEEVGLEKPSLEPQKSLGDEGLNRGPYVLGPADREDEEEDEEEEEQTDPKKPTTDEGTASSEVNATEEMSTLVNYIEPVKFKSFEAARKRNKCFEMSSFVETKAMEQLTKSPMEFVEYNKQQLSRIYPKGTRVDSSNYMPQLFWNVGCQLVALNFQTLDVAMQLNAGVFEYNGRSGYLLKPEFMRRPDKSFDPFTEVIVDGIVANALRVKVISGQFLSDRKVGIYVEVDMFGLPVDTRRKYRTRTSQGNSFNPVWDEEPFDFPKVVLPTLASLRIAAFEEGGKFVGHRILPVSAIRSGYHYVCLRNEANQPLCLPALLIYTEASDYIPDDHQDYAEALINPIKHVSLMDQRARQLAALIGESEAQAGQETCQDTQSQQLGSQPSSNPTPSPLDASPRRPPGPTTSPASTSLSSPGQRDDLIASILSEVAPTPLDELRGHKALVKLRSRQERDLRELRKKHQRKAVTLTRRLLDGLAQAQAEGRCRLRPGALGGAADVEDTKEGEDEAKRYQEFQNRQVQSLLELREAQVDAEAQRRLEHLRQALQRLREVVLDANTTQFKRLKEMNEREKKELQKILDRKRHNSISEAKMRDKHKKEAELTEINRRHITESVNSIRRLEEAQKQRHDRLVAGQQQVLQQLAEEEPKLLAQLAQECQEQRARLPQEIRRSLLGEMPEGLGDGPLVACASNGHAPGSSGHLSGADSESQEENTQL
Test [5] addresses 1-phosphatidylinositol 4,5-bisphosphate phosphodiesterase gamma-1 (Homo sapiens, UniProt P19174). Briefly: Counterscreen for inhibitors of phospholipase C isozymes (PLC-B3): Fluorescence-based biochemical high throughput dose response assay to identify inhibitors of phospholipase C isozymes (PLC-gamma1).
Test [6] in a line: A Cell-Based Confirmatory Screen for Compounds that Inhibit VEEV TC-83 (4). The format is functional.
A short description of test [7]: A Cell-Based Confirmatory Screen for Compounds that Inhibit VEEV, TC-83 (3). It counts as functional.
A short description of test [8]: A Cell-Based Confirmatory Screen for Compounds that Inhibit VEEV, TC-83 (5). The format is functional.
The nature of test [9]: HEK293 Cytotoxicity Assay Measured in Cell-Based System Using Plate Reader - 7071-01_Inhibitor_Dose_CherryPick_Activity_Set2. It counts as functional.
A further test relates to HEK293. Briefly: viability loss in HEK293T cells – cell-based, ATP luminescence, cherry-pick samples, cytotoxicity control, dose response (AID 687005).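 Further: cells exposed to compound for 48 hours.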 The format is functional. Particulars: Homo sapiens.
For test [10], the target named is G-protein coupled receptor 183 (Homo sapiens, UniProt P32249). Briefly: SAR confirmation of small molecule antagonists of the EBI2 receptor via a luminescent beta-arrestin assa. It counts as functional.
G-protein coupled receptor 183, sequence (P32249 whole entry): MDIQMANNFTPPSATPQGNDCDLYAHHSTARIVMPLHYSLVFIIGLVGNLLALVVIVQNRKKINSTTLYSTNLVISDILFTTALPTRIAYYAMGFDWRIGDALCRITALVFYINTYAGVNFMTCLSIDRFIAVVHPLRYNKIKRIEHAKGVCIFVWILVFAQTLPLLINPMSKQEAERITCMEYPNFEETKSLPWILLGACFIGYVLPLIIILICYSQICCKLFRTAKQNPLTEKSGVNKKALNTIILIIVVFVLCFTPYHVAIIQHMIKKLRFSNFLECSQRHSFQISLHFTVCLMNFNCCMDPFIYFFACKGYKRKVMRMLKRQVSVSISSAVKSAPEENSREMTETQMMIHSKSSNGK
Test [11] is described as follows: growth inhibition of PfATP4-mutant resistant parasites – NITD609-resistant line, SYBR Green, dry powder, dose response (AID 1159571).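 Further: parasites synchronized at ring stage by sorbitol before testing.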 It counts as functional, cell-based.
Test [12] is described as follows: growth inhibition of yeast DHODH-expressing 3D7 parasites – SYBR Green, dry powder samples, dose response (AID 1159570).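 Further: parasite growth measured after 72 hours of compound exposure.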 The format is functional, cell-based.
Test [13] in a line: P. falciparum Dd2 growth inhibitors, dose response, SYBR Green, cherry-picked samples (AID 1159567). The format is functional, cell-based.
A short description of test [14]: Plasmodium falciparum Dd2 Sybr green parasite growth Measured in Cell-Based and Microorganism Combination System Using Plate Reader - 2153-01_Inhibitor_Dose_DryPowder_Activity_Set3. It counts as functional.
The nature of test [15]: Dd2 malaria parasite growth inhibition potency – SYBR Green, dry powder samples, dose response (AID 1159566).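 Further: potency for growth inhibition with lower SYBR green DNA signal.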 The format is functional, cell-based.
The nature of test [16]: COV362 cell viability loss – plate reader, dry powder, SA12, cytotoxicity control for PAX8 inhibitor project, dose response (AID 743144). It counts as functional, cell-based.
Test [17] is described as follows: IGROV1 cell killing – plate reader, dry powder samples, PAX8 inhibitor project, dose response (AID 743043). The following applies: IGROV-1. The format is functional, cell-based.
The next test deals with Paired box protein Pax-8 (Homo sapiens, UniProt Q06710). The experiment in a line: PAX8 transcriptional activity inhibition in RMG-I – RMG-I cells, luciferase, cherry-pick, dose response (AID 687027).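 Further: luciferase reporter driven by Pax8 target thyroperoxidase promoter measured by SteadyGlo luminescence.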 The format is functional, cell-based.
Paired box protein Pax-8, sequence (Q06710 whole entry): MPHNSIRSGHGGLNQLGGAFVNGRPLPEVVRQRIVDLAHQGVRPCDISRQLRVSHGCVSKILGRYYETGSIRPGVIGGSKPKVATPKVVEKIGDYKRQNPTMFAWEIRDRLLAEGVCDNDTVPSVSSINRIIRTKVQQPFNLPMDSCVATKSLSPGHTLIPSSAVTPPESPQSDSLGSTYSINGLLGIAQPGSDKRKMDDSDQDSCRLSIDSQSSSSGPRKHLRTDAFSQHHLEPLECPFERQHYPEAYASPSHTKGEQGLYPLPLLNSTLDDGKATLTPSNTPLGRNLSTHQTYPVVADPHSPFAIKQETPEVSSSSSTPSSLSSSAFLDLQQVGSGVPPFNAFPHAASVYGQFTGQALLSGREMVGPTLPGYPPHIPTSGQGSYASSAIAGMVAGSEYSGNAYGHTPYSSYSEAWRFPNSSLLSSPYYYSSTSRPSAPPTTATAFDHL
The nature of test [18]: OVCAR8 cell viability loss – plate reader, dry powder samples, PAX8 project, dose response (AID 743197). It counts as functional, cell-based. Particulars: OVCAR-8.
Test [19] in a line: OVCAR4 cell viability loss – plate reader, dry powder, SA11, cytotoxicity control for PAX8 inhibitor project, dose response (AID 743150). The format is functional, cell-based. Particulars: OVCAR-4.
Test [20] in a line: COV434 cell viability loss – plate reader, dry powder, SA7, cytotoxicity control for PAX8 inhibitor project, dose response (AID 743145). The format is functional, cell-based.
Test [21] is described as follows: OVCAR-3 cell viability loss – plate reader, dry powder samples, PAX8 inhibitor project, dose response (AID 743044). It counts as functional, cell-based.
Test [22] in a line: A2780 cell killing – plate reader, dry powder samples, cytotoxicity control, dose response (AID 743046). The format is functional, cell-based.
Test [23] in a line: inhibitors acting on PAX2 in cells – cell-based, plate reader, dry powder samples, selectivity assay for PAX8 inhibitor project, dose response (AID 743048).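 Further: HEK293 cells carrying a WT1 promoter luciferase reporter driven by expressed Pax2; potency is for inhibition of Pax2 driven reporter signal.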 The format is functional.
Test [24] is described as follows: PAX8-dependent cell viability loss – plate reader, dry powder, dose response (AID 743049). It counts as functional, cell-based.
Test [25] in a line: OV-90 cell viability loss – plate reader, dry powder, SA8, PAX8 inhibitor project, dose response (AID 743149). The format is functional, cell-based.
Test [26] in a line: PAX5 cellular inhibition readout – cell-based, plate reader, dry powder samples, selectivity assay for PAX8 inhibitor project, dose response (AID 743047).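 Further: HEK293 cells carrying a Pax5 driven CD19 promoter luciferase reporter; potency of inhibitors that lower reporter luminescence.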 It counts as functional.
A short description of test [27]: toxicity toward immortalized ovarian surface epithelium – cell-based, plate reader, dry powder samples, cytotoxicity control for PAX8 inhibitor project, dose response (AID 743045). The format is functional.
Test [28] in a line: toxicity to HepG2 liver cells – cell-based, plate reader, dry powder, set 6, cytotoxicity control, dose response (AID 743311). The format is functional.
Another test in a line: cells. Particulars: HEK293.
Test [29] deals with Metabotropic glutamate receptor 7 (Homo sapiens, UniProt Q14831). The experiment in a line: potentiation of glutamate EC20 at mGlu7 – cell-based, calcium mobilization, Galpha15, dose response (AID 743384). The format is functional. In general terms: A change in cytosolic calcium serves as a functional read-out for many receptors and channels.
Metabotropic glutamate receptor 7, sequence (Q14831 whole entry): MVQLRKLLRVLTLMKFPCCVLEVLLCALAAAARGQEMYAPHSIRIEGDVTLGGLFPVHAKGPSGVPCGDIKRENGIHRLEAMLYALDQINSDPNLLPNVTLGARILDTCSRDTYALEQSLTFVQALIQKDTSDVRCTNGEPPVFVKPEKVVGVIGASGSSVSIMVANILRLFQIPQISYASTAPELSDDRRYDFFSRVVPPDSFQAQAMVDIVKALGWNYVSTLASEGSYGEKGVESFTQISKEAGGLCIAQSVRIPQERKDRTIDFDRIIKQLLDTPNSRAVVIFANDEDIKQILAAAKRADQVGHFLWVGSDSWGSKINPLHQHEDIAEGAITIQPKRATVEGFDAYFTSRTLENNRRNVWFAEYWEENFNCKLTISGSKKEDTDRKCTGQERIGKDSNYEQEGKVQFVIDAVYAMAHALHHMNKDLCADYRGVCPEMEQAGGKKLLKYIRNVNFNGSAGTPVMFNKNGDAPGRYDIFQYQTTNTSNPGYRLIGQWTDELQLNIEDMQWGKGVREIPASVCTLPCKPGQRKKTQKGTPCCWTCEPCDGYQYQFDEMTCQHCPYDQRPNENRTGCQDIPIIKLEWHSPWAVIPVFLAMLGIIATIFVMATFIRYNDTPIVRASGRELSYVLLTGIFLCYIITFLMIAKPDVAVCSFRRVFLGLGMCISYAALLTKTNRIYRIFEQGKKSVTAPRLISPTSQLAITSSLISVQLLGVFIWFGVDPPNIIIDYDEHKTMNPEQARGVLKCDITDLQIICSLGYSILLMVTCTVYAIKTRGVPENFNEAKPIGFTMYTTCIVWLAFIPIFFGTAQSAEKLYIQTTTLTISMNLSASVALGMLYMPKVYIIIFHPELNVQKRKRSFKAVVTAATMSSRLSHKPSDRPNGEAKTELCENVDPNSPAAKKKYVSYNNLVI

The AC50 is the concentration giving half of the maximal activity seen. By IC50 is commonly meant the concentration needed to halve the response being measured. For orientation: EC50 means the midpoint of the concentration-response curve.

Structures are written as SMILES. Active and inactive are the calls of the source.

1-phosphatidylinositol 4,5-bisphosphate phosphodiesterase gamma-1, sequence (P19174 whole entry): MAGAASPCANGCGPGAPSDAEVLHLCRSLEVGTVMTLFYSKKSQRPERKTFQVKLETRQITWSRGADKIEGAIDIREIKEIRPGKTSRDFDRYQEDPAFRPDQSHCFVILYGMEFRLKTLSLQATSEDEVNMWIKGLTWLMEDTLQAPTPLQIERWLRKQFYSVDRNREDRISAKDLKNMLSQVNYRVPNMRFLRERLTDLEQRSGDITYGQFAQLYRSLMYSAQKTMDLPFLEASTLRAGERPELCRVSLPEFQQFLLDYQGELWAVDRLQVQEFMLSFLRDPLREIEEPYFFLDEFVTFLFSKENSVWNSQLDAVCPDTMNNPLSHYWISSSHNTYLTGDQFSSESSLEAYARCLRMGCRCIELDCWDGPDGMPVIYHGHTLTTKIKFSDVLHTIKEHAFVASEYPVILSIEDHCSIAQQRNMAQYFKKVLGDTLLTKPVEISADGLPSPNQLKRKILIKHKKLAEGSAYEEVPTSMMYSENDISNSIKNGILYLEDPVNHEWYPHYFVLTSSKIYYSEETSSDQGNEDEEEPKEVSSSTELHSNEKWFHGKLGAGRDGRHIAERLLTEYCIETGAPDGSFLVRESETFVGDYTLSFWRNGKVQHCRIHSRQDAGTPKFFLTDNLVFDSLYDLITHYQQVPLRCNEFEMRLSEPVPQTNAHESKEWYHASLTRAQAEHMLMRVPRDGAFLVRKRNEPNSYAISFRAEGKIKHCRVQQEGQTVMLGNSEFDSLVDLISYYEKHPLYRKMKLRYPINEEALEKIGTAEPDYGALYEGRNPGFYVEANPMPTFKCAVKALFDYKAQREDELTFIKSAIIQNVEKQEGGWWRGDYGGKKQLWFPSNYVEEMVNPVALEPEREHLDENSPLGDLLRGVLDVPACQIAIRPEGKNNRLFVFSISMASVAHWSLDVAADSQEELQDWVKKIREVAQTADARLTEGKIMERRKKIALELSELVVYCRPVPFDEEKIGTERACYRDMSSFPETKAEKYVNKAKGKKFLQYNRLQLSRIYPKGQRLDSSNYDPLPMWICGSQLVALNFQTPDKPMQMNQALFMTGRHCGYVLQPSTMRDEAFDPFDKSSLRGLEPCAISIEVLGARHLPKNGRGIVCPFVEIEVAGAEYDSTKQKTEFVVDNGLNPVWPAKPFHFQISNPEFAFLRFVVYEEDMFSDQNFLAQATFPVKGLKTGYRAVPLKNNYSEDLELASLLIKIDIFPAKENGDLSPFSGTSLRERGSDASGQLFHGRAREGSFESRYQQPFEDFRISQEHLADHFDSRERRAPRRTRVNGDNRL

For `COC(=O)c1ccc(COc2ccc3c(c2)CCC3)o1`, the AC50 in the test on A-375 [1] and in the test on A-375 [3] was > 35 µM (active) in each case. Also, the IC50 in test [2] was > 7 µM (active).

With `O=C(/C(=C(\[S-])Nc1ccc(SC(F)F)cc1)[n+]1ccccc1)c1cc(Cl)ccc1Cl`, at Transthyretin, the EC50 is > 167 µM (inactive).

Turning to `CN(C(=O)c1ccccc1)C1c2c(ccc3ccccc23)OCC1CO` (stereo not drawn), the IC50 in test [4] and in test [5] was > 122 µM (inactive) in each case.

In the case of `CN1CCN(Cc2nc3ccc([N+](=O)[O-])cc3c(=O)n2-c2ccccc2F)CC1`, the IC50 in test [6] is 0.74 µM (active); in test [7], < 0.72 µM (active); in test [8], 0.65 µM (active).

In the case of `CCCN1C[C@H](C)[C@@H](OC)CN(C)C(=O)c2cc(NC(=O)c3cccc(F)c3)ccc2OC[C@@H]1C`, the AC50 (in test [9]; in the test on HEK293) was 19.8 µM (active) in each case.

For the molecule `COc1cc(CN2CCN(C(=O)/C=C/c3ccc(Br)cc3)CC2)cc(OC)c1`, the IC50 in test [10] is 0.00364 µM (active).

Turning to `CO[C@@H]1CN(C)C(=O)c2ccc(NC(=O)Nc3ccccc3F)cc2OC[C@@H](C)N(CCC(F)(F)F)C[C@H]1C`, the AC50 in test [11] is 1.92 µM (active); in test [12], 6.04 µM (active); in test [13] it was 1.57 µM (active); in test [14] it was 0.567 µM (active); in test [15], 0.51 µM (active).

On to `CN(C[C@H]1N[C@@H](CO)[C@@H]1c1ccc(-c2cccnc2)cc1)C(=O)c1ccccc1`, for which the AC50 was 7.42 µM (active) in test [16]; 5.83 µM (active) in test [17]; 2.89 µM (active) at Paired box protein Pax-8; 8.64 µM (active) in [18]; 5.14 µM (active) in [19]; 11.3 µM (active) in test [20]. Also, the AC50 was 7.22 µM (active) in [21]; 13.8 µM (active) in [22]; > 32 µM (inactive) in [23]; 9.82 µM (active) in test [24]; 14.5 µM (active) in [25]; 15.8 µM (active) in test [26]. In test [27], the AC50 was 23.4 µM (active).

Consider `c1ccc(COc2ccc(OCCn3cnc4ccccc43)cc2)cc1`, for which the AC50 (in [28]; in “cells”) was > 52 µM (inactive) throughout.

As for `COc1ccc(CSCC(=O)c2cc(C)n(-c3ccc(OC(F)F)cc3)c2C)cc1`, the EC50 in test [29] was 10 µM (active).

(Values after ChEMBL document CHEMBL1201862, “PubChem BioAssay data set” (2004).)
